Assay results as given in PubChem BioAssay AID743274 (The Scripps Research Institute Molecular Screening Center, 2014).
Activity calls are given as the source filed them.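 Rule for the calls: active = malaria parasite growth inhibition of at least 50% at 10 µM in any single replicate well; inactive = under 50% inhibition in every replicate.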

The compounds below were run on P. falciparum 3D7 in RBCs, 3H-hypoxanthine incorporation, 48 h (assay: blood-stage malaria parasite growth inhibition – cell-based, 3H-hypoxanthine radiolabel, RBCs, Set 2, P. falciparum M17LAP inhibitor project, late-stage follow-up (AID 743274)). Conditions: at 10 µM; active compounds read high.

Structure (SMILES) | inhibition
CC(C)COc1ccc(CC(=O)NO)cc1 | 69%
CC(C)C[C@H](N)C(=O)NO | 1% (inactive)
CN(O)C(=O)Cc1ccc(OCc2ccccc2)cc1 | 15.5% (inactive)
CC(C)(C(=O)NO)c1ccccc1 | 0% (inactive)
NC(N)=NCCC[C@H](N)C(=O)NO | 0% (inactive)
CCCCOc1ccc(CNc2c(N(C)O)c(=O)c2=O)cc1 | 63%
Cc1ccc(CC(=O)NO)cc1 | 53%
CCCCOc1ccc(C(C)(C)C(=O)NO)cc1 | 12% (inactive)
CCCCc1ccc(CC(=O)NO)cc1 | 84.5%
O=C(Cc1cccc2ccccc12)NO | 14.5% (inactive)
CCCCOc1ccc(CN(O)C(C)=O)cc1 | 19.5% (inactive)
O=C(NO)c1cccc2ccccc12 | 0% (inactive)
O=C(Cc1ccc(Oc2ccccc2)cc1)NO | 38.5%
CCCCOc1cccc(CC(=O)NO)c1 | 32.5% (inactive)
CCCCOc1cccc(CC(=O)OC)c1 | 3% (inactive)
O=C(Cc1ccc2c(c1)CCCC2)NO | 82.5%
O=C(Cc1ccc(OCc2ccccc2)cc1)NO | 93%
CCCCOc1ccc(C(C)C(=O)O)cc1 (stereo unspecified) | 0% (inactive)

Structure (SMILES) | inhibition
CCCCOc1ccc(CCC(=O)NO)cc1 | 26% (inactive)
CCCCOc1ccc(C(C)C(=O)NO)cc1 (stereo unspecified) | 59.5%
COc1ccc(CCCC(=O)NO)cc1 | 15.5% (inactive)
CCCCOc1ccc(C(C)C(=O)OC)cc1 (stereo unspecified) | 4.5% (inactive)
CCCCCCCCCC(=O)NO | 53%
CCCCOc1ccc(CN(O)C(=O)c2ccccc2)cc1 | 59.5%
COc1ccc(CC(=O)NO)cc1 | 50%
CCCCOc1ccc(C(=O)NO)cc1 | 73.5%
O=C(Cc1ccc2ccccc2c1)NO | 52%
O=C(NO)c1ccc2ccccc2c1 | 53.5%
CCCCOc1ccc(CC(=O)N(C)O)cc1 | 58%
CCCCOc1ccc(CNc2c(N(O)Cc3ccccc3)c(=O)c2=O)cc1 | 0% (inactive)
CCCCOc1ccc(CC(=O)O)cc1 | 0% (inactive)
COc1ccc(OCCC(=O)NO)cc1 | 9% (inactive)
CCOc1ccc(CC(=O)NO)cc1 | 70%
CCC(C)Oc1ccc(CC(=O)NO)cc1 (stereo unspecified) | 71%
N[C@@H](Cc1c[nH]c2ccccc12)C(=O)NO | 2.5% (inactive)
CCCOc1ccc(CC(=O)NO)cc1 | 74%
